Test results: PubChem BioAssay AID1671244

Target: Casein kinase I isoform delta (Homo sapiens) (UniProt P48730)
Assay: inhibition of CK1 delta activity – biochemical, Z'-LYTE, FRET, direct format, dose response (AID 1671244)
Conditions: recombinant CK1 delta

Chain of Casein kinase I isoform delta (Homo sapiens) (P48730 whole entry, looked up, canonical isoform): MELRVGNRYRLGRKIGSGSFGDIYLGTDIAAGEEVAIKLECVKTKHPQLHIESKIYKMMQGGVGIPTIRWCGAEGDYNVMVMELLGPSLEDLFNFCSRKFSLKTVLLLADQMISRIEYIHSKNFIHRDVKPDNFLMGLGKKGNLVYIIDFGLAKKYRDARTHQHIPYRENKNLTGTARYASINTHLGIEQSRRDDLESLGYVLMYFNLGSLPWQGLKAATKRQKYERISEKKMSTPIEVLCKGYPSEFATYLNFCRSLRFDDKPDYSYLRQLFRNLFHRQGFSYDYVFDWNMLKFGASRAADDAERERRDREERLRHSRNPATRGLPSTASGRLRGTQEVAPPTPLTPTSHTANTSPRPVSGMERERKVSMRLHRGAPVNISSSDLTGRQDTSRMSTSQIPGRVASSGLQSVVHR

Brc1c(Br)c(Br)c2n[nH]nc2c1Br
IC50: 3.68 µM
